Activity calls are given as the source filed them. The rule behind the calls is not given here.
Assays:
Escherichia coli [1] = test: Antimicrobial activity against Escherichia coli obtained from urine sample of patient assessed as percent susceptible isolates by disk diffusion method; assay type: functional
Enterobacter sp. [2] = test: Antimicrobial activity against Enterobacter sp. obtained from urine sample of patient assessed as percent susceptible isolates by disk diffusion method; assay type: functional
Klebsiella pneumoniae [3] = test: Antimicrobial activity against Klebsiella pneumoniae obtained from urine sample of patient assessed as percent susceptible isolates by disk diffusion method; assay type: functional
Proteus mirabilis = test: Antimicrobial activity against Proteus mirabilis obtained from urine sample of patient assessed as percent susceptible isolates by disk diffusion method; assay type: functional
Salmonella sp. = test: Antimicrobial activity against Salmonella sp. obtained from urine sample of patient assessed as percent susceptible isolates by disk diffusion method; assay type: functional
Serratia marcescens = test: Antimicrobial activity against Serratia marcescens obtained from urine sample of patient assessed as percent susceptible isolates by disk diffusion method; assay type: functional
[4] = test system: Stenotrophomonas maltophilia; test: Antimicrobial activity against Stenotrophomonas maltophilia obtained from urine sample of patient assessed as percent susceptible isolates by disk diffusion method; assay type: functional
[5] = test system: Staphylococcus epidermidis; test: Antimicrobial activity against Staphylococcus epidermidis obtained from urine sample of patient assessed as percent susceptible isolates by disk diffusion method; assay type: functional, organism-based
Acinetobacter baumannii = test: Antimicrobial activity against Acinetobacter baumannii obtained from urine sample of patient assessed as percent susceptible isolates by disk diffusion method; assay type: functional
Pseudomonas aeruginosa [6] = test: Antimicrobial activity against Pseudomonas aeruginosa obtained from urine sample of patient assessed as percent susceptible isolates by disk diffusion method; assay type: functional
[7] = test system: Staphylococcus saprophyticus; test: Antimicrobial activity against Staphylococcus saprophyticus obtained from urine sample of patient assessed as percent susceptible isolates by disk diffusion method; assay type: functional
Enterococcus faecalis = test: Antimicrobial activity against Enterococcus faecalis obtained from urine sample of patient assessed as percent susceptible isolates by disk diffusion method; assay type: functional
Enterococcus faecium = test: Antimicrobial activity against Enterococcus faecium obtained from urine sample of patient assessed as percent susceptible isolates by disk diffusion method; assay type: functional
Streptococcus agalactiae = test: Antimicrobial activity against Streptococcus agalactiae obtained from urine sample of patient assessed as percent susceptible isolates by disk diffusion method; assay type: functional
Klebsiella pneumoniae [8] = test: Antimicrobial activity against colistin-nonsusceptible Klebsiella pneumoniae assessed as percent susceptible isolates by disk diffusion method; assay type: functional
Klebsiella pneumoniae [9] = test: Antimicrobial activity against carbapenemase-nonsusceptible Klebsiella pneumoniae assessed as percent susceptible isolates by disk diffusion method; assay type: functional
Klebsiella pneumoniae [10] = test: Antimicrobial activity against carbapenemase producing Klebsiella pneumoniae assessed as percent susceptible isolates by disk diffusion method; assay type: functional
Pseudomonas aeruginosa [11] = test: Antimicrobial activity against carbapenemase-nonsusceptible Pseudomonas aeruginosa assessed as percent susceptible isolates by disk diffusion method; assay type: functional
Escherichia coli [12] = test: Antimicrobial activity against cefotaxime-, ceftriaxone-, cefepime-, ceftazidime-, and aztreonam-nonsusceptible Escherichia coli assessed as percent susceptible isolates by disk diffusion method; assay type: functional
Klebsiella pneumoniae [13] = test: Antimicrobial activity against cefotaxime-, ceftriaxone-, cefepime-, ceftazidime-, and aztreonam-nonsusceptible Klebsiella pneumoniae assessed as percent susceptible isolates by disk diffusion method; assay type: functional
Enterobacter sp. [14] = test: Antimicrobial activity against cefotaxime-, ceftriaxone-, cefepime-, ceftazidime-, and aztreonam-nonsusceptible Enterobacter sp. assessed as percent susceptible isolates by disk diffusion method; assay type: functional
Pseudomonas aeruginosa [15] = test: Antimicrobial activity against cefotaxime-, ceftriaxone-, cefepime-, ceftazidime-, and aztreonam-nonsusceptible Pseudomonas aeruginosa assessed as percent susceptible isolates by disk diffusion method; assay type: functional
Escherichia coli [16] = test: Antimicrobial activity against […] producing Escherichia coli assessed as percent susceptible isolates by disk diffusion method; assay type: functional
Klebsiella pneumoniae [17] = test: Antimicrobial activity against […] producing Klebsiella pneumoniae assessed as percent susceptible isolates by disk diffusion method; assay type: functional
Klebsiella oxytoca = test: Antimicrobial activity against […] producing Klebsiella oxytoca assessed as percent susceptible isolates by disk diffusion method; assay type: functional
Staphylococcus aureus = test: Antimicrobial activity against Staphylococcus aureus obtained from urine sample of patient assessed as percent susceptible isolates by disk diffusion method; assay type: functional

C[C@@H]1O[C@@H]1P(=O)(O)O [FOSFOMYCIN]
Activity (Escherichia coli [1]): 100%
Activity (Enterobacter sp. [2]): 75%
Activity (Klebsiella pneumoniae [3]): 82.3%
Activity (Proteus mirabilis): 96.7%
Activity (Salmonella sp.): 66.6%
Activity (Serratia marcescens): 66.6%
Activity [4]: 66.6%
Activity [5]: Active
Activity (Acinetobacter baumannii): 9%
Activity (Pseudomonas aeruginosa [6]): 85%
Activity [7]: 100%
Activity (Enterococcus faecalis): 91.8%
Activity (Enterococcus faecium): 0%
Activity (Streptococcus agalactiae): 50%
Activity (Klebsiella pneumoniae [8]): 58.3%
Activity (Klebsiella pneumoniae [9]): 60%
Activity (Klebsiella pneumoniae [10]): 60%
Activity (Pseudomonas aeruginosa [11]): 88.8%
Activity (Escherichia coli [12]): 100%
Activity (Klebsiella pneumoniae [13]): 75%
Activity (Enterobacter sp. [14]): 100%
Activity (Pseudomonas aeruginosa [15]): 17%
Activity (Escherichia coli [16]): 100%
Activity (Klebsiella pneumoniae [17]): 100%
Activity (Klebsiella oxytoca): 0%
Activity (Staphylococcus aureus): 100%

From ChEMBL document CHEMBL1649250, “Susceptibility of urinary tract bacteria to fosfomycin” (2009)
